The NIST ThermoML archive (doi:10.1021/je201116t)
Numbers after ± are expanded uncertainties.

Test: xn = mol fraction of the nth substance listed
Conditions: 101 kPa, Liquid; for viscosity: Capillary tube (Ostwald / Ubbelohde) method

CCC(=O)[O-].CC[NH+]1CCNCC1 [N-ethylpiperazinium propionate] + CCCO
Conditions | mass density, 298.15 K [kg/m3] | mass density, 303.15 K [kg/m3] | mass density, 308.15 K [kg/m3] | mass density, 313.15 K [kg/m3] | viscosity, 298.15 K [mPa·s] | viscosity, 303.15 K [mPa·s] | viscosity, 308.15 K [mPa·s] | viscosity, 313.15 K [mPa·s]
x2 = 0 | 1008.36 ± 1.2 | 1004.38 ± 1.2 | 1000.33 ± 1.2 | 996.237 ± 1.2 | 243.49 ± 7.6 | 164.81 ± 4.6 | 113.44 ± 2.7 | 80.93 ± 1.8
x2 = 0.1036 | 1000.19 ± 1 | 996.232 ± 1.1 | 992.229 ± 1.1 | 988.196 ± 1.1 | 160.34 ± 4.3 | 113.63 ± 2.6 | 81.46 ± 1.7 | 59.74 ± 1.2
x2 = 0.2026 | 991.259 ± 0.95 | 987.3 ± 0.97 | 983.298 ± 0.98 | 979.269 ± 1 | 107.67 ± 2.4 | 76.59 ± 1.5 | 56.22 ± 1 | 42.19 ± 0.74
x2 = 0.3041 | 980.78 ± 0.89 | 976.824 ± 0.9 | 972.831 ± 0.92 | 968.803 ± 0.93 | 70.22 ± 1.3 | 52.12 ± 0.9 | 39.45 ± 0.67 | 30.42 ± 0.51
x2 = 0.4017 | 968.85 ± 0.84 | 964.943 ± 0.86 | 960.993 ± 0.88 | 956.993 ± 0.89 | 47.45 ± 0.8 | 36.21 ± 0.6 | 28.19 ± 0.45 | 22.22 ± 0.35
x2 = 0.4993 | 955.014 ± 0.82 | 951.074 ± 0.84 | 947.084 ± 0.86 | 943.06 ± 0.88 | 30.81 ± 0.5 | 24.26 ± 0.37 | 19.38 ± 0.29 | 15.67 ± 0.23
x2 = 0.5997 | 937.035 ± 0.83 | 933.087 ± 0.85 | 929.086 ± 0.87 | 925.047 ± 0.89 | 18.93 ± 0.3 | 15.39 ± 0.22 | 12.6 ± 0.18 | 10.42 ± 0.14
x2 = 0.6994 | 915.033 ± 0.88 | 911.053 ± 0.9 | 907.028 ± 0.92 | 902.965 ± 0.94 | 11.31 ± 0.17 | 9.444 ± 0.13 | 7.899 ± 0.11 | 6.684 ± 0.085
x2 = 0.8009 | 886.568 ± 0.97 | 882.553 ± 0.99 | 878.491 ± 1 | 874.385 ± 1 | 6.389 ± 0.098 | 5.454 ± 0.072 | 4.689 ± 0.061 | 4.059 ± 0.049
x2 = 0.8997 | 850.105 ± 1.1 | 846.036 ± 1.1 | 841.932 ± 1.1 | 837.782 ± 1.2 | 3.609 ± 0.053 | 3.15 ± 0.04 | 2.762 ± 0.035 | 2.435 ± 0.029
